Test results published in patent publication US12065430B2, “Indazole compound or salt thereof” (TAIHO PHARMACEUTICAL CO., LTD., priority 2018, dated 2024).

Molecular target: G12C K-Ras4B (1-169) (Homo sapiens (Human), UniProt P01116, G12C)
Assay: Test of compounds on whether to bind to KRASG12C (LC-MS compound binding rate)
Conditions: final compound concentration of 2 μM, 1 μM protein, 25° C. for 2 hours
Description: Test compounds were prepared in the form of a 10 mM DMSO solution.
K-Ras4B (1-169) and G12C K-Ras4B (1-169) proteins were mixed and diluted with a buffer (1×TBS, 0.1 mM TCEP) to prepare individual 1 μM protein solutions. A 10 mM test compound was diluted tenfold with DMSO to make a 1 mM solution, and then diluted fivefold with DMSO to make a 200 μM solution. The 200 μM solution was further diluted fivefold to make a 40 μM solution. When the final compound concentration was 10 μM, 1 μL of a 200 μM test compound was added to 19 μL of a 1 μM protein solution. When the final compound concentration was 2 μM, 1 μL of a 40 μM test compound was added to 19 μL of a 1 μM protein solution. The mixtures were stored in an incubator at 25° C. for 2 hours, and 80 μL of a 1×TBS solution containing 0.2% formic acid was added thereto to end the reaction, followed by LC-MS measurement. LC-MS measurement was performed using Xevo G2-S Q-Tof manufactured by Waters, and reverse-phase chromatography was performed with a desalting column. A mass spectrum of positive ions was obtained by electrospray. For a mass spectrum, a spectrum of a polyvalent ion was collectively converted to a molecular weight by using OpenLynx software by the MaxEnt technique, and a compound binding rate was obtained from the ratio of a signal intensity that corresponds to the molecular weight of a protein to a signal intensity that corresponds to the molecular weight of a compound binding to the protein.
By obtaining the compound binding rate for K-Ras4B (1-169) and the compound binding rate for G12C K-Ras4B (1-169) at the same time, information of the selectivity for G12C K-Ras4B (1-169) was obtained at the same time.
The test compounds were measured at their final compound concentration of 2 μM. […] Almost no compounds of the present invention binded to K-Ras4B (1-169). The “binding rate” (%) for each of K-Ras4B (1-169) and G12C K-Ras4B (1-169) refers to the ratio of the signal intensity of binded forms to the sum of the signal intensity of non-binded forms and the signal intensity of binded forms.

Row | SMILES | binding rate for G12C K-Ras4B (1-169)
1 | C=CC(=O)N1C[C@H](NC(=O)c2c(C)nc(CNc3n[nH]c4cc(Cl)c(C(C)(C)C)cc34)n2C)[C@H](OC)C1 [Example 61, N-((3S,4R)-1-acryloyl-4-methoxypyrrolidin-3-yl)-2-(((5-(tert-butyl)-6-chloro-1H-indazol-3-yl)amino)methyl)-1,4-dimethyl-1H-imidazole-5-carboxamide] | B (a binding rate of 60% or more and less than 80% is rated “B,”)
2 | C=CC(=O)N1CC(NC(=O)c2c(Cl)nc(CNc3n[nH]c4cc(Cl)c(C(C)(C)C)cc34)n2-c2ccccn2)C1 [Example 94, N-(1-acryloylazetidin-3-yl)-2-(((5-(tert-butyl)-6-chloro-1H-indazol-3-yl)amino)methyl)-4-chloro-1-(pyridin-2-yl)-1H-imidazole-5-carboxamide] | B (a binding rate of 60% or more and less than 80% is rated “B,”)
3 | C=CS(=O)(=O)N1CC(NC(=O)c2c(C)nc(CNc3n[nH]c4cc(Cl)c(C(C)(C)C)cc34)n2C(C)C)C1 [Example 86, 2-(((5-(tert-butyl)-6-chloro-1H-indazol-3-yl)amino)methyl)-1-isopropyl-4-methyl-N-(1-(vinylsulfonyl)azetidin-3-yl)-1H-imidazole-5-carboxamide] | A (a binding rate of 80% or more is rated “A,”)
4 | C=CC(=O)N1CC(NC(=O)c2c(Cl)nc(CNc3n[nH]c4cc(Cl)c(C(=C)C(F)(F)F)cc34)n2C(C)C)C1 [Example 43, N-(1-acryloylazetidin-3-yl)-4-chloro-2-(((6-chloro-5-(3,3,3-trifluoroprop-1-en-2-yl)-1H-indazol-3-yl)amino)methyl)-1-isopropyl-1H-imidazole-5-carboxamide] | C (a binding rate of 40% or more and less than 60% is rated “C,”)
5 | C=CC(=O)N1CCN(C(=O)c2c(C)nc(CNc3n[nH]c4cc(Cl)c(C(C)(C)C)cc34)n2C)CC1 [Example 50, 1-(4-(2-(((5-(Tert-butyl)-6-chloro-1H-indazol-3-yl)amino)methyl)-1,4-dimethyl-1H-imidazole-5-carbonyl)piperazin-1-yl)prop-2-en-1-one] | C (a binding rate of 40% or more and less than 60% is rated “C,”)
6 | C=CC(=O)N1CC(NC(=O)c2csc(CNc3n[nH]c4cc(Cl)c(C(C)(C)C)cc34)n2)C1 [Example 7, N-(1-acryloylazetidin-3-yl)-2-(((5-(tert-butyl)-6-chloro-1H-indazol-3-yl)amino)methyl)thiazole-4-carboxamide] | D (a binding rate of 20% or more and less than 40% is rated “D,”)
7 | C=CC(=O)N1C[C@H](NC(=O)c2c(C)nc(CNc3n[nH]c4cc(Cl)c(C(C)(C)C)cc34)n2C)C2(CC2)C1 [Example 54, (R)—N-(5-acryloyl-5-azaspiro[2.4]heptan-7-yl)-2-(((5-(tert-butyl)-6-chloro-1H-indazol-3-yl)amino)methyl)-1,4-dimethyl-1H-imidazole-5-carboxamide] | B (a binding rate of 60% or more and less than 80% is rated “B,”)
8 | C=CC(=O)N1CC(NC(=O)c2c(C)nc(CNc3n[nH]c4cc(Cl)c(C(C)(C)C)cc34)n2C(C)(C)C)C1 [Example 24, N-(1-acryloylazetidin-3-yl)-1-(tert-butyl)-2-(((5-(tert-butyl)-6-chloro-1H-indazol-3-yl)amino)methyl)-4-methyl-1H-imidazole-5-carboxamide] | C (a binding rate of 40% or more and less than 60% is rated “C,”)
9 | C=CC(=O)N1CC(NC(=O)c2c(Br)nc(CNc3n[nH]c4cc(Cl)c(C(C)(C)C)cc34)n2C)C1 [Example 27, N-(1-acryloylazetidin-3-yl)-4-bromo-2-(((5-(tert-butyl)-6-chloro-1H-indazol-3-yl)amino)methyl)-1-methyl-1H-imidazole-5-carboxamide] | A (a binding rate of 80% or more is rated “A,”)
10 | CC(C)n1c(CNc2n[nH]c3cc(Cl)c(C(C)(C)C)cc23)nc(C(F)F)c1C(=O)NC1CN(C(=O)/C=C/CN(C)C)C1 [Example 84, (E)-2-(((5-(tert-butyl)-6-chloro-1H-indazol-3-yl)amino)methyl)-4-(difluoromethyl)-N-(1-(4-(dimethylamino)but-2-enoyl)azetidin-3-yl)-1-isopropyl-1H-imidazole-5-carboxamide] | C (a binding rate of 40% or more and less than 60% is rated “C,”)
11 | C=CC(=O)N1CC(NC(=O)c2c(Cl)nc(CNc3n[nH]c4cc(Cl)c(C(C)(C)C)cc34)n2C2CC=CC2)C1 [Example 98, N-(1-acryloylazetidin-3-yl)-2-(((5-(tert-butyl)-6-chloro-1H-indazol-3-yl)amino)methyl)-4-chloro-1-(cyclopent-3-en-1-yl)-1H-imidazole-5-carboxamide] | A (a binding rate of 80% or more is rated “A,”)
12 | C=CC(=O)N1CC(NC(=O)c2c(Cl)nc(CNc3n[nH]c4cc(Cl)c(C(C)(C)C)cc34)n2CCOC)C1 [Example 90, N-(1-acryloylazetidin-3-yl)-2-(((5-(tert-butyl)-6-chloro-1H-indazol-3-yl)amino)methyl)-4-chloro-1-(2-methoxyethyl)-1H-imidazole-5-carboxamide] | A (a binding rate of 80% or more is rated “A,”)
13 | C=CC(=O)N1CC(NC(=O)c2c(C)nc(CNc3n[nH]c4cc(Cl)c(C(C)(C)C)cc34)n2CCN(C)C)C1 [Example 16, N-(1-acryloylazetidin-3-yl)-2-(((5-(tert-butyl)-6-chloro-1H-indazol-3-yl)amino)methyl)-1-(2-(dimethylamino)ethyl)-4-methyl-1H-imidazole-5-carboxamide] | B (a binding rate of 60% or more and less than 80% is rated “B,”)
14 | C=CC(=O)N1CC(NC(=O)c2c(Cl)nc(CNc3n[nH]c4cc(Cl)c(C(C)(C)C)cc34)n2[C@@H]2CCN(Cc3ccccc3)C2)C1 [Example 122, (R)—N-(1-acryloylazetidin-3-yl)-1-(1-benzylpyrrolidin-3-yl)-2-(((5-(tert-butyl)-6-chloro-1H-indazol-3-yl)amino)methyl)-4-chloro-1H-imidazole-5-carboxamide] | A (a binding rate of 80% or more is rated “A,”)
15 | Cc1nc(CNc2n[nH]c3cc(Cl)c(C(C)(C)C)cc23)n(C(C)C)c1C(=O)NC1CN(C(=O)/C=C/CN2CCCCC2)C1 [Example 79, (E)-2-(((5-(tert-butyl)-6-chloro-1H-indazol-3-yl)amino)methyl)-1-isopropyl-4-methyl-N-(1-(4-(piperidin-1-yl)but-2-enoyl)azetidin-3-yl)-1H-imidazole-5-carboxamide] | E (a binding rate of less than 20% is rated “E.”)
16 | C=CC(=O)N1CC(NC(=O)c2c(C)nc(CNc3n[nH]c4cc(Cl)c(C(C)(C)C)cc34)n2Cc2ccccc2)C1 [Example 15, N-(1-acryloylazetidin-3-yl)-1-benzyl-2-(((5-(tert-butyl)-6-chloro-1H-indazol-3-yl)amino)methyl)-4-methyl-1H-imidazole-5-carboxamide] | A (a binding rate of 80% or more is rated “A,”)
17 | C=CC(=O)N1CC(NC(=O)c2cnc(CNc3n[nH]c4cc(Cl)c(C(C)(C)C)cc34)s2)C1 [Example 8, N-(1-acryloylazetidin-3-yl)-2-(((5-(tert-butyl)-6-chloro-1H-indazol-3-yl)amino)methyl)thiazole-5-carboxamide] | B (a binding rate of 60% or more and less than 80% is rated “B,”)
18 | C=CC(=O)N1CC(NC(=O)c2c(C)nc(CNc3n[nH]c4cc(Cl)c(C(C)(C)C)cc34)n2C2CCCC2)C1 [Example 17, N-(1-acryloylazetidin-3-yl)-2-(((5-(tert-butyl)-6-chloro-1H-indazol-3-yl)amino)methyl)-1-cyclopentyl-4-methyl-1H-imidazole-5-carboxamide] | B (a binding rate of 60% or more and less than 80% is rated “B,”)
19 | C=CC(=O)N1CC(NC(=O)c2c(Cl)nc(CNc3n[nH]c4cc(Cl)c(C(C)(C)C)cc34)n2CC(C)C)C1 [Example 89, N-(1-acryloylazetidin-3-yl)-2-(((5-(tert-butyl)-6-chloro-1H-indazol-3-yl)amino)methyl)-4-chloro-1-isobutyl-1H-imidazole-5-carboxamide] | A (a binding rate of 80% or more is rated “A,”)
20 | C=CC(=O)N1CC(NC(=O)c2c(C(F)F)nc(CNc3n[nH]c4cc(Cl)c(C(C)(C)C)cc34)n2C2CCN(CC)C2)C1 (centres unmarked) [Example 92, N-(1-acryloylazetidin-3-yl)-2-(((5-(tert-butyl)-6-chloro-1H-indazol-3-yl)amino)methyl)-4-(difluoromethyl)-1-(1-ethylpyrrolidin-3-yl)-1H-imidazole-5-carboxamide] | B (a binding rate of 60% or more and less than 80% is rated “B,”)
